# Measured values published in PubChem BioAssay (NCI).
#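 Dose response: 5 concentrations. Exposure: 48 h. Format: 96-well plates. Endpoint: linear interpolation; highest concentration if not reached. The concentration for 50% growth inhibition is given as GI50. TGI marks complete inhibition of growth.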
# Tests used:
# Test in all cases: NCI anticancer screen, dose series, 48 h
# SK-OV-3 ovarian = system: SK-OV-3 ovarian
# EKVX NSCLC = system: EKVX NSCLC
# RPMI-8226 leukemia = system: RPMI-8226 leukemia
# DU-145 prostate = system: DU-145 prostate
# CAKI-1 renal = system: CAKI-1 renal
# SK-MEL-2 melanoma = system: SK-MEL-2 melanoma
# HCT-116 colon = system: HCT-116 colon
# LOX IMVI melanoma = system: LOX IMVI melanoma
# U251 CNS = system: U251 CNS
# BT-549 breast = system: BT-549 breast
# M14 melanoma = system: M14 melanoma
# PC-3 prostate = system: PC-3 prostate
# SNB-75 CNS = system: SNB-75 CNS
# T-47D breast = system: T-47D breast
# MCF7 breast = system: MCF7 breast
# OVCAR-8 ovarian = system: OVCAR-8 ovarian
# TK-10 renal = system: TK-10 renal
# MDA-MB-435 = system: MDA-MB-435
# SNB-19 CNS = system: SNB-19 CNS
# HOP-62 NSCLC = system: HOP-62 NSCLC
# SK-MEL-5 melanoma = system: SK-MEL-5 melanoma
# A498 renal = system: A498 renal
# HCT-15 colon = system: HCT-15 colon
# MDA-MB-231 breast = system: MDA-MB-231 breast
# SF-268 CNS = system: SF-268 CNS
# NCI-H460 lung = system: NCI-H460 lung
# HS 578T breast = system: HS 578T breast
# SW-620 colon = system: SW-620 colon
# HCC-2998 colon = system: HCC-2998 colon
# NCI-H522 lung = system: NCI-H522 lung
# CCRF-CEM leukemia = system: CCRF-CEM leukemia
# SR leukemia = system: SR leukemia
# RXF 393 renal = system: RXF 393 renal
# SK-MEL-28 melanoma = system: SK-MEL-28 melanoma
# A549 NSCLC = system: A549 NSCLC
# SN12C renal = system: SN12C renal
# NCI/ADR-RES ovarian = system: NCI/ADR-RES ovarian
# NCI-H226 lung = system: NCI-H226 lung
# SF-539 CNS = system: SF-539 CNS
# IGROV1 ovarian = system: IGROV1 ovarian
# UO-31 renal = system: UO-31 renal
# HL-60(TB) leukemia = system: HL-60(TB) leukemia
# SF-295 CNS = system: SF-295 CNS
# 786-0 renal = system: 786-0 renal
# HOP-92 NSCLC = system: HOP-92 NSCLC
# OVCAR-4 ovarian = system: OVCAR-4 ovarian
# NCI-H23 lung = system: NCI-H23 lung
# MOLT-4 leukemia = system: MOLT-4 leukemia
# ACHN renal = system: ACHN renal
# MALME-3M melanoma = system: MALME-3M melanoma
# COLO 205 colon = system: COLO 205 colon
# UACC-257 melanoma = system: UACC-257 melanoma
# HT29 colon = system: HT29 colon
# UACC-62 melanoma = system: UACC-62 melanoma
# OVCAR-5 ovarian = system: OVCAR-5 ovarian
# KM12 colon = system: KM12 colon
# K-562 leukemia = system: K-562 leukemia
compound,measurement,setting,value
O=C(NCCN1CCCC1)c1ccc(-c2nc3ccc4[nH]ncc4c3c3c2CCCC3)cc1,GI50,SK-OV-3 ovarian,232 nM
same,TGI,SK-OV-3 ovarian,2170 nM
same,GI50,EKVX NSCLC,850 nM
same,TGI,EKVX NSCLC,5150 nM
same,GI50,RPMI-8226 leukemia,871 nM
same,TGI,RPMI-8226 leukemia,2270 nM
same,GI50,DU-145 prostate,677 nM
same,TGI,DU-145 prostate,5340 nM
same,GI50,CAKI-1 renal,199 nM
same,TGI,CAKI-1 renal,4380 nM
same,GI50,SK-MEL-2 melanoma,726 nM
same,TGI,SK-MEL-2 melanoma,1880 nM
same,GI50,HCT-116 colon,252 nM
same,TGI,HCT-116 colon,2020 nM
same,GI50,LOX IMVI melanoma,622 nM
same,TGI,LOX IMVI melanoma,1360 nM
same,GI50,U251 CNS,717 nM
same,TGI,U251 CNS,2250 nM
same,GI50,BT-549 breast,384 nM
same,TGI,BT-549 breast,1160 nM
same,GI50,M14 melanoma,729 nM
same,TGI,M14 melanoma,1550 nM
same,GI50,PC-3 prostate,682 nM
same,TGI,PC-3 prostate,2770 nM
same,GI50,SNB-75 CNS,259 nM
same,TGI,SNB-75 CNS,1850 nM
same,GI50,T-47D breast,1070 nM
same,TGI,T-47D breast,6100 nM
same,GI50,MCF7 breast,807 nM
same,TGI,MCF7 breast,4150 nM
same,GI50,OVCAR-8 ovarian,798 nM
same,TGI,OVCAR-8 ovarian,3160 nM
same,GI50,TK-10 renal,443 nM
same,TGI,TK-10 renal,7360 nM
same,GI50,MDA-MB-435,654 nM
same,TGI,MDA-MB-435,3890 nM
same,GI50,SNB-19 CNS,1130 nM
same,TGI,SNB-19 CNS,5060 nM
same,GI50,HOP-62 NSCLC,497 nM
same,TGI,HOP-62 NSCLC,2140 nM
same,GI50,SK-MEL-5 melanoma,1100 nM
same,TGI,SK-MEL-5 melanoma,2530 nM
same,GI50,A498 renal,193 nM
same,TGI,A498 renal,911 nM
same,GI50,HCT-15 colon,1910 nM
same,TGI,HCT-15 colon,7430 nM
same,GI50,MDA-MB-231 breast,796 nM
same,TGI,MDA-MB-231 breast,2430 nM
same,GI50,SF-268 CNS,703 nM
same,TGI,SF-268 CNS,1790 nM
same,GI50,NCI-H460 lung,628 nM
same,TGI,NCI-H460 lung,1570 nM
same,GI50,HS 578T breast,189 nM
same,TGI,HS 578T breast,1390 nM
same,GI50,SW-620 colon,607 nM
same,TGI,SW-620 colon,3140 nM
same,GI50,HCC-2998 colon,870 nM
same,TGI,HCC-2998 colon,2820 nM
same,GI50,NCI-H522 lung,289 nM
same,TGI,NCI-H522 lung,1050 nM
same,GI50,CCRF-CEM leukemia,497 nM
same,TGI,CCRF-CEM leukemia,3270 nM
same,GI50,SR leukemia,94.1 nM
same,TGI,SR leukemia,1900 nM
same,GI50,RXF 393 renal,241 nM
same,TGI,RXF 393 renal,955 nM
same,GI50,SK-MEL-28 melanoma,919 nM
same,TGI,SK-MEL-28 melanoma,2680 nM
same,GI50,A549 NSCLC,1090 nM
same,TGI,A549 NSCLC,5540 nM
same,GI50,SN12C renal,882 nM
same,TGI,SN12C renal,4460 nM
same,GI50,NCI/ADR-RES ovarian,10700 nM
same,TGI,NCI/ADR-RES ovarian,50000 nM
same,GI50,NCI-H226 lung,716 nM
same,TGI,NCI-H226 lung,5250 nM
same,GI50,SF-539 CNS,515 nM
same,TGI,SF-539 CNS,1170 nM
same,GI50,IGROV1 ovarian,351 nM
same,TGI,IGROV1 ovarian,4060 nM
same,GI50,UO-31 renal,1400 nM
same,TGI,UO-31 renal,6340 nM
same,GI50,HL-60(TB) leukemia,978 nM
same,TGI,HL-60(TB) leukemia,2320 nM
same,GI50,SF-295 CNS,1060 nM
same,TGI,SF-295 CNS,4160 nM
same,GI50,786-0 renal,580 nM
same,TGI,786-0 renal,1350 nM
same,GI50,HOP-92 NSCLC,99.7 nM
same,TGI,HOP-92 NSCLC,864 nM
same,GI50,OVCAR-4 ovarian,1050 nM
same,TGI,OVCAR-4 ovarian,5080 nM
same,GI50,NCI-H23 lung,802 nM
same,TGI,NCI-H23 lung,2460 nM
same,GI50,MOLT-4 leukemia,486 nM
same,TGI,MOLT-4 leukemia,2640 nM
same,GI50,ACHN renal,1070 nM
same,TGI,ACHN renal,5890 nM
same,GI50,MALME-3M melanoma,769 nM
same,TGI,MALME-3M melanoma,1650 nM
same,GI50,COLO 205 colon,625 nM
same,TGI,COLO 205 colon,1490 nM
same,GI50,UACC-257 melanoma,1050 nM
same,TGI,UACC-257 melanoma,2440 nM
same,GI50,HT29 colon,996 nM
same,TGI,HT29 colon,3510 nM
same,GI50,UACC-62 melanoma,1200 nM
same,TGI,UACC-62 melanoma,5600 nM
same,GI50,OVCAR-5 ovarian,1390 nM
same,TGI,OVCAR-5 ovarian,4440 nM
same,GI50,KM12 colon,237 nM
same,TGI,KM12 colon,2910 nM
same,GI50,K-562 leukemia,760 nM
same,TGI,K-562 leukemia,3880 nM
